This is an account of results in patent publication US9884868B2, “TGF-beta inhibitors” (Rigel Pharmaceuticals, Inc., priority 2015, dated 2018).

In this experiment the target is HIS-TGF-βR1 T204D (Homo sapiens (Human), UniProt P36897, T204D). Nature of the experiment: HTRF probe displacement assay with HIS-TGF-βR1 T204D. For orientation: In TR-FRET formats the signal depends on donor and acceptor labels being close together.
Setting [1] is: read-out: TGFbr1 IC50, HTRF probe displacement, 1 nM HIS-TGF-βR1 T204D, 1 hour at room temperature.

Like-named read-outs stand apart in the source and are kept apart here.

HIS-TGF-βR1 T204D, sequence (P36897 34-503 T204D): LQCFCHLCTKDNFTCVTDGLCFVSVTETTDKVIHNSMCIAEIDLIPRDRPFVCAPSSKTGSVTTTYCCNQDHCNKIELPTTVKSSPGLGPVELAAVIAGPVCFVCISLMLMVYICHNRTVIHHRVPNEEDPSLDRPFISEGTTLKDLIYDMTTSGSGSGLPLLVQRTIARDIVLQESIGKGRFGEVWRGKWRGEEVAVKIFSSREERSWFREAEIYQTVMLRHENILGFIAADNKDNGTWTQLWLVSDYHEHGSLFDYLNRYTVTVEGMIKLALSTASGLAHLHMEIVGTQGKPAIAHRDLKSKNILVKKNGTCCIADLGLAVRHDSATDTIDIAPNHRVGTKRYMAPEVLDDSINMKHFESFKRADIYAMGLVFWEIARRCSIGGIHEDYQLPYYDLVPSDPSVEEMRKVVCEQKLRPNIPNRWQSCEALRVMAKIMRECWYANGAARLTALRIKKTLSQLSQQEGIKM

`N#Cc1cnc2ccc(-c3c(-c4ccc(F)cc4)ncn3CCC(F)(F)F)nn12` [4′, 6-(4-(4-fluorophenyl)-1-(3,3,3-trifluoropropyl)-1H-imidazol-5-yl)imidazo[1,2-b]pyridazine-3-carbonitrile]: the IC50 (in general, the point on the concentration scale where inhibition reaches its midpoint) came out at 6.8 nM.

Turning to `N#Cc1cnc2ccc(-c3c(-c4ccc(F)cc4)ncn3C3CCC(F)(F)C3)nn12` (stereo not drawn) [5′, 6-(1-(3,3-difluorocyclopentyl)-4-(4-fluorophenyl)-1H-imidazol-5-yl)imidazo[1,2-b]pyridazine-3-carbonitrile], the IC50 under setting [1] was determined as 5.5 nM.

In the case of `N#Cc1cnc2ccc(-c3c(-c4ccc(F)cc4)ncn3C3CC3)nn12` [7′, 6-(1-cyclopropyl-4-(4-fluorophenyl)-1H-imidazol-5-yl)imidazo[1,2-b]pyridazine-3-carbonitrile], under setting [1], the IC50 turned out to be 2.4 nM.

For the molecule `N#Cc1cnc2ccc(-c3c(-c4ccc(F)cc4)ncn3CCF)nn12` [9′, 6-(1-(2-fluoroethyl)-4-(4-fluorophenyl)-1H-imidazol-5-yl)imidazo[1,2-b]pyridazine-3-carbonitrile], the concentration for half-maximal inhibition (IC50) under setting [1] was found to be 1.9 nM.

Take `CCn1cnc(-c2ccc(F)cc2)c1-c1ccc2ncc(C#N)n2n1` [10′, 6-(1-ethyl-4-(4-fluorophenyl)-1H-imidazol-5-yl)imidazo[1,2-b]pyridazine-3-carbonitrile]: the IC50 under setting [1] was found to be 2.5 nM.

For the molecule `CC(C)OCCn1cnc(-c2ccc(F)cc2)c1-c1ccc2ncc(C#N)n2n1` [11′, 6-(4-(4-fluorophenyl)-1-(2-isopropoxyethyl)-1H-imidazol-5-yl)imidazo[1,2-b]pyridazine-3-carbonitrile], the IC50 under setting [1] turned out to be 3 nM.

With `CC(C)(O)CCn1cnc(-c2ccc(F)cc2)c1-c1ccc2ncc(C#N)n2n1` [12′, 6-(4-(4-fluorophenyl)-1-(3-hydroxy-3-methylbutyl)-1H-imidazol-5-yl)imidazo[1,2-b]pyridazine-3-carbonitrile], the IC50 under setting [1] turned out to be 2.1 nM.

As to `N#Cc1cnc2ccc(-c3c(-c4ccc(F)cc4)ncn3C3COC3)nn12` [13′, 6-(4-(4-fluorophenyl)-1-(oxetan-3-yl)-1H-imidazol-5-yl)imidazo[1,2-b]pyridazine-3-carbonitrile], the IC50 under setting [1] is 17 nM.

For the molecule `N#Cc1cnc2ccc(-c3c(-c4ccc(F)cc4)ncn3CCCO)nn12` [15′, 6-(4-(4-fluorophenyl)-1-(3-hydroxypropyl)-1H-imidazol-5-yl)imidazo[1,2-b]pyridazine-3-carbonitrile], under setting [1], the concentration for half-maximal inhibition (IC50) came to 2 nM.

Regarding `N#Cc1cnc2ccc(-c3[nH]cnc3-c3ccc(F)cc3)nn12` [18′, 6-(4-(4-fluorophenyl)-1H-imidazol-5-yl)imidazo[1,2-b]pyridazine-3-carbonitrile], the IC50 under setting [1] worked out at 10.5 nM.

As to `Cn1cnc(-c2ccc(F)cc2)c1-c1ccc2ncc(C#N)n2n1` [19′, 6-(4-(4-fluorophenyl)-1-methyl-1H-imidazol-5-yl)imidazo[1,2-b]pyridazine-3-carbonitrile], the half-inhibitory concentration (IC50) under setting [1] was 9.9 nM.

In the case of `N#Cc1cnc2ccc(-c3c(-c4ccc(F)cc4)ncn3CCC(F)F)nn12` [20′, 6-(1-(3,3-difluoropropyl)-4-(4-fluorophenyl)-1H-imidazol-5-yl)imidazo[1,2-b]pyridazine-3-carbonitrile], the IC50 under setting [1] is 2.2 nM.

In the case of `N#Cc1cnc2ccc(-c3c(-c4ccc(F)cc4)ncn3CCCF)nn12` [21′, 6-(4-(4-fluorophenyl)-1-(3-fluoropropyl)-1H-imidazol-5-yl)imidazo[1,2-b]pyridazine-3-carbonitrile], the IC50 under setting [1] worked out at 1.9 nM.

Turning to `CC(F)(F)Cn1cnc(-c2ccc(F)cc2)c1-c1ccc2ncc(C#N)n2n1` [22′, 6-(1-(2,2-difluoropropyl)-4-(4-fluorophenyl)-1H-imidazol-5-yl)imidazo[1,2-b]pyridazine-3-carbonitrile], the IC50 under setting [1] worked out at 1.2 nM.

In the case of `CC(C)(F)Cn1cnc(-c2ccc(F)cc2)c1-c1ccc2ncc(C#N)n2n1` [23′, 6-(1-(2-fluoro-2-methylpropyl)-4-(4-fluorophenyl)-1H-imidazol-5-yl)imidazo[1,2-b]pyridazine-3-carbonitrile], the IC50 under setting [1] was 1.9 nM.

Consider `CC(C)n1cnc(-c2ccc(F)cc2)c1-c1ccc2ncc(C#N)n2n1` [24′, 6-(4-(4-fluorophenyl)-1-isopropyl-1H-imidazol-5-yl)imidazo[1,2-b]pyridazine-3-carbonitrile], for which the IC50 under setting [1] was 0.4 nM.

Consider `N#Cc1cnc2ccc(-c3c(-c4ccc(F)cc4)ncn3C34CC(C3)C4)nn12` [25′, 6-(1-(bicyclo[1.1.1]pentan-1-yl)-4-(4-fluorophenyl)-1H-imidazol-5-yl)imidazo[1,2-b]pyridazine-3-carbonitrile], for which, under setting [1], the IC50 is 2.6 nM.

`CC(C)(O)Cn1cnc(-c2ccc(F)cc2)c1-c1ccc2ncc(C#N)n2n1` [26′, 6-(4-(4-fluorophenyl)-1-(2-hydroxy-2-methylpropyl)-1H-imidazol-5-yl)imidazo[1,2-b]pyridazine-3-carbonitrile]: under setting [1], the IC50 was 92.6 nM.

Turning to `N#Cc1cnc2ccc(-c3c(-c4ccc(F)cc4)ncn3C3CC(CO)C3)nn12` (stereo not drawn) [27′, 6-(4-(4-fluorophenyl)-1-(3-(hydroxymethyl)cyclobutyl)-1H-imidazol-5-yl)imidazo[1,2-b]pyridazine-3-carbonitrile], the IC50 under setting [1] is 0.6 nM.

For the molecule `CCC(C)(C)n1cnc(-c2ccc(F)cc2)c1-c1ccc2ncc(C#N)n2n1` [30′, 6-(4-(4-fluorophenyl)-1-(tert-pentyl)-1H-imidazol-5-yl)imidazo[1,2-b]pyridazine-3-carbonitrile], the IC50 under setting [1] turned out to be 9.2 nM.

As for `N#Cc1cnc2ccc(-c3c(-c4ccc(F)cc4)ncn3CC3CCCO3)nn12` (stereo not drawn) [31′, 6-(4-(4-fluorophenyl)-1-((tetrahydrofuran-2-yl)methyl)-1H-imidazol-5-yl)imidazo[1,2-b]pyridazine-3-carbonitrile], the IC50 under setting [1] came to 1.9 nM.

For `N#Cc1cnc2ccc(-c3c(-c4ccc(F)c(Cl)c4)ncn3CC(F)F)nn12` [33′, 6-(4-(3-chloro-4-fluorophenyl)-1-(2,2-difluoroethyl)-1H-imidazol-5-yl)imidazo[1,2-b]pyridazine-3-carbonitrile], the IC50 under setting [1] is 1 nM.

Take `N#Cc1cnc2ccc(-c3c(-c4ccc(F)c(Cl)c4)ncn3CCF)nn12` [34′, 6-(4-(3-chloro-4-fluorophenyl)-1-(2-fluoroethyl)-1H-imidazol-5-yl)imidazo[1,2-b]pyridazine-3-carbonitrile]: the IC50 under setting [1] was 0.9 nM.

Molecule `N#Cc1cnc2ccc(-c3c(-c4ccc(F)c(Cl)c4)ncn3CCC(F)(F)F)nn12` [35′, 6-(4-(3-chloro-4-fluorophenyl)-1-(3,3,3-trifluoropropyl)-1H-imidazol-5-yl)imidazo[1,2-b]pyridazine-3-carbonitrile] gave an IC50 of 2.6 nM.

Take `N#Cc1cnc2ccc(-c3c(-c4ccc(F)c(Cl)c4)ncn3C3CC3)nn12` [36′, 6-(4-(3-chloro-4-fluorophenyl)-1-cyclopropyl-1H-imidazol-5-yl)imidazo[1,2-b]pyridazine-3-carbonitrile]: the IC50 under setting [1] worked out at 1.3 nM.

As for `CC(C)(O)CCn1cnc(-c2ccc(F)c(Cl)c2)c1-c1ccc2ncc(C#N)n2n1` [37′, 6-(4-(3-chloro-4-fluorophenyl)-1-(3-hydroxy-3-methylbutyl)-1H-imidazol-5-yl)imidazo[1,2-b]pyridazine-3-carbonitrile], the IC50 under setting [1] was determined as 2.5 nM.

For `N#Cc1cnc2ccc(-c3c(-c4ccc(F)c(Cl)c4)ncn3CCCO)nn12` [38′, 6-(4-(3-chloro-4-fluorophenyl)-1-(3-hydroxypropyl)-1H-imidazol-5-yl)imidazo[1,2-b]pyridazine-3-carbonitrile], the IC50 under setting [1] is 1 nM.

For the molecule `N#Cc1cnc2ccc(-c3c(-c4ccc(F)c(Cl)c4)ncn3CCC3CCC3)nn12` [40′, 6-(4-(3-chloro-4-fluorophenyl)-1-(2-cyclobutylethyl)-1H-imidazol-5-yl)imidazo[1,2-b]pyridazine-3-carbonitrile], the IC50 under setting [1] amounted to 0.6 nM.

With `CC1(n2cnc(-c3ccc(F)c(Cl)c3)c2-c2ccc3ncc(C#N)n3n2)CC1` [41′, 6-(4-(3-chloro-4-fluorophenyl)-1-(1-methylcyclopropyl)-1H-imidazol-5-yl)imidazo[1,2-b]pyridazine-3-carbonitrile], under setting [1], the IC50 amounted to 0.9 nM.

Regarding `N#Cc1cnc2ccc(-c3c(-c4ccc(F)c(Cl)c4)ncn3C[C@@H]3CCCO3)nn12` [42′, (S)-6-(4-(3-chloro-4-fluorophenyl)-1-((tetrahydrofuran-2-yl)methyl)-1H-imidazol-5-yl)imidazo[1,2-b]pyridazine-3-carbonitrile], the IC50 under setting [1] amounted to 1.8 nM.

Turning to `CC1(n2cnc(-c3ccc(F)c(Cl)c3)c2-c2ccc3ncc(C#N)n3n2)COC1` [43′, 6-(4-(3-chloro-4-fluorophenyl)-1-(3-methyloxetan-3-yl)-1H-imidazol-5-yl)imidazo[1,2-b]pyridazine-3-carbonitrile], the IC50 under setting [1] is 2.7 nM.

In the case of `N#Cc1cnc2ccc(-c3c(-c4ccc(F)c(Cl)c4)ncn3CCCCl)nn12` [44′, 6-(4-(3-chloro-4-fluorophenyl)-1-(3-chloropropyl)-1H-imidazol-5-yl)imidazo[1,2-b]pyridazine-3-carbonitrile], under setting [1], the IC50 amounted to 1.2 nM.

Consider `CC1(Cn2cnc(-c3ccc(F)c(Cl)c3)c2-c2ccc3ncc(C#N)n3n2)COC1` [45′, 6-(4-(3-chloro-4-fluorophenyl)-1-((3-methyloxetan-3-yl)methyl)-1H-imidazol-5-yl)imidazo[1,2-b]pyridazine-3-carbonitrile], for which the IC50 under setting [1] came to 2.3 nM.

As to `N#Cc1cnc2ccc(-c3c(-c4ccc(F)c(Cl)c4)ncn3C3CCOC3)nn12` (stereo not drawn) [46′, 6-(4-(3-chloro-4-fluorophenyl)-1-(tetrahydrofuran-3-yl)-1H-imidazol-5-yl)imidazo[1,2-b]pyridazine-3-carbonitrile], the IC50 under setting [1] was 1.5 nM.

For `CC(C)CCn1cnc(-c2ccc(F)c(Cl)c2)c1-c1ccc2ncc(C#N)n2n1` [49′, 6-(4-(3-chloro-4-fluorophenyl)-1-isopentyl-1H-imidazol-5-yl)imidazo[1,2-b]pyridazine-3-carbonitrile], the IC50 under setting [1] was found to be 1.4 nM.

Consider `Cn1cnc(-c2ccc(F)c(Cl)c2)c1-c1ccc2ncc(C#N)n2n1` [50′, 6-(4-(3-chloro-4-fluorophenyl)-1-methyl-1H-imidazol-5-yl)imidazo[1,2-b]pyridazine-3-carbonitrile], for which, under setting [1], the IC50 came to 2.3 nM.
